Measured values from ChEMBL document CHEMBL1128617, “4-Deoxy-4-aminoavermectins with potent broad spectrum antiparasitic activities” (1995).

How the values were obtained:
Type in all cases: functional
[1] = test system: Ovis aries; assay: Antiparasitic activity against Trichostrongylus colubriformis at dose of 0.05 mg/kg in sheep anthelmintic test
[2] = test system: Ovis aries; assay: Antiparasitic activity against Oesophagostomum columbianum at dose of 0.05 mg/kg in sheep anthelmintic test
[3] = test system: Ovis aries; assay: Antiparasitic activity against Haemonchus contortus at dose of 0.05 mg/kg in sheep anthelmintic test
[4] = test system: Artemia; assay: In vitro antiparasitic activity in brine shrimp assay
[5] = test system: Ovis aries; assay: Antiparasitic activity against Cooperia oncophora at dose of 0.05 mg/kg in sheep anthelmintic test
[6] = test system: Ovis aries; assay: Antiparasitic activity against Trichostrongylus axei at dose of 0.05 mg/kg in sheep anthelmintic test
[7] = test system: Ovis aries; assay: Antiparasitic activity against Ostertagia circumcincta at dose of 0.05 mg/kg in sheep anthelmintic test
[8] = test system: Ovis aries; assay: Antiparasitic activity against Cooperia […] at dose of 0.05 mg/kg in sheep anthelmintic test
[9] = test system: Oesophagostomum columbianum; assay: Antiparasitic activity against Oesophagostomum columbianum at dose of 0.10 mg/kg in sheep anthelmintic test; details: dose 0.1 mg/kg
[10] = test system: Cooperia oncophora; assay: Antiparasitic activity against Cooperia oncophora at dose of 0.10 mg/kg in sheep anthelmintic test; details: dose 0.1 mg/kg
[11] = test system: Cooperia; assay: Antiparasitic activity against Cooperia […] at dose of 0.10 mg/kg in sheep anthelmintic test; details: dose 0.1 mg/kg
[12] = test system: Haemonchus contortus; assay: Antiparasitic activity against Haemonchus contortus at dose of 0.10 mg/kg in sheep anthelmintic test; details: dose 0.1 mg/kg
[13] = test system: Trichostrongylus colubriformis; assay: Antiparasitic activity against Trichostrongylus colubriformis at dose of 0.10 mg/kg in sheep anthelmintic test; details: dose 0.1 mg/kg
[14] = test system: Teladorsagia circumcincta; assay: Antiparasitic activity against Ostertagia circumcincta at dose of 0.10 mg/kg in sheep anthelmintic test; details: dose 0.1 mg/kg
[15] = test system: Trichostrongylus axei; assay: Antiparasitic activity against Trichostrongylus axei at dose of 0.10 mg/kg in sheep anthelmintic test; details: dose 0.1 mg/kg
[16] = test system: Ovis aries; assay: Antiparasitic activity against Ostertagia circumcincta at dose of 0.08 mg/kg in sheep anthelmintic test
[17] = test system: Ovis aries; assay: Antiparasitic activity against Haemonchus contortus at dose of 0.08 mg/kg in sheep anthelmintic test
[18] = test system: Ovis aries; assay: Antiparasitic activity against Oesophagostomum columbianum at dose of 0.08 mg/kg in sheep anthelmintic test
[19] = test system: Ovis aries; assay: Antiparasitic activity against Trichostrongylus colubriformis at dose of 0.08 mg/kg in sheep anthelmintic test
[20] = test system: Ovis aries; assay: Antiparasitic activity against Cooperia […] at dose of 0.08 mg/kg in sheep anthelmintic test
[21] = test system: Ovis aries; assay: Antiparasitic activity against Trichostrongylus axei at dose of 0.08 mg/kg in sheep anthelmintic test

CCC(C)[C@H]1O[C@]2(C=C[C@@H]1C)C[C@@H]1C[C@@H](C/C=C(\C)[C@@H](O[C@H]3C[C@H](OC)[C@@H](O[C@H]4C[C@H](OC)[C@H](NC(C)C)[C@H](C)O4)[C@H](C)O3)[C@@H](C)/C=C/C=C3\CO[C@@H]4[C@H](O)C(C)=C[C@@H](C(=O)O1)[C@]34O)O2 (stereo not given in full)
Reduction [1]: 51% | Reduction [2]: >95% | Reduction [3]: 76% | IC100 [4]: 1730 ng/mL | Reduction [5]: 51% | Reduction [6]: <50% | Reduction [7]: <50% | Reduction [8]: 51%

CCC(C)[C@H]1O[C@]2(CC(O)[C@@H]1C)C[C@@H]1C[C@@H](C/C=C(\C)[C@@H](O[C@H]3C[C@H](OC)[C@@H](O[C@H]4C[C@H](OC)[C@H](NC(C)=O)[C@H](C)O4)[C@H](C)O3)[C@@H](C)/C=C/C=C3\CO[C@@H]4[C@H](O)C(C)=C[C@@H](C(=O)O1)[C@]34O)O2 (stereo not given in full)
Reduction [9]: >95% | Reduction [10]: >95% | Reduction [11]: 76% | Reduction [12]: <50% | IC100 [4]: 870 ng/mL | Reduction [13]: >95% | Reduction [14]: >95% | Reduction [15]: >95%

CCC(C)[C@H]1O[C@]2(CC[C@@H]1C)C[C@@H]1C[C@@H](C/C=C(\C)[C@@H](O[C@H]3C[C@H](OC)[C@@H](O[C@H]4C[C@H](OC)[C@H](NC(C)=O)[C@H](C)O4)[C@H](C)O3)[C@@H](C)/C=C/C=C3\CO[C@@H]4[C@H](O)C(C)=C[C@@H](C(=O)O1)[C@]34O)O2 (stereo not given in full)
Reduction [9]: >95% | Reduction [10]: >95% | Reduction [11]: >95% | Reduction [12]: >95% | IC100 [4]: 650 ng/mL | Reduction [13]: >95% | Reduction [14]: >95% | Reduction [15]: >95%

CCC(C)[C@H]1O[C@]2(C=C[C@@H]1C)C[C@@H]1C[C@@H](C/C=C(\C)[C@@H](O[C@H]3C[C@H](OC)[C@@H](O[C@H]4C[C@H](OC)[C@H](/N=C/N(C)C)[C@H](C)O4)[C@H](C)O3)[C@@H](C)/C=C/C=C3\CO[C@@H]4[C@H](O)C(C)=C[C@@H](C(=O)O1)[C@]34O)O2 (stereo not given in full)
Reduction [9]: >95% | Reduction [10]: <50% | Reduction [11]: 76% | Reduction [12]: >95% | IC100 [4]: 870 ng/mL | Reduction [13]: <50% | Reduction [14]: >95% | Reduction [15]: 51%

CCC(C)[C@H]1O[C@]2(C=C[C@@H]1C)C[C@@H]1C[C@@H](C/C=C(\C)[C@@H](O[C@H]3C[C@H](OC)[C@@H](O[C@H]4C[C@H](OC)[C@H](NC(=O)OC)[C@H](C)O4)[C@H](C)O3)[C@@H](C)/C=C/C=C3\CO[C@@H]4[C@H](O)C(C)=C[C@@H](C(=O)O1)[C@]34O)O2 (stereo not given in full)
Reduction [9]: >95% | Reduction [10]: >95% | Reduction [11]: >95% | Reduction [12]: >95% | IC100 [4]: 430 ng/mL | Reduction [13]: >95% | Reduction [14]: >95% | Reduction [15]: >95%

CCC(C)[C@H]1O[C@]2(C=C[C@@H]1C)C[C@@H]1C[C@@H](C/C=C(\C)[C@@H](O[C@H]3C[C@H](OC)[C@@H](O[C@H]4C[C@H](OC)/C(=N\NC(N)=O)[C@H](C)O4)[C@H](C)O3)[C@@H](C)/C=C/C=C3\CO[C@@H]4[C@H](O)C(C)=C[C@@H](C(=O)O1)[C@]34O)O2 (stereo not given in full)
Reduction [16]: >95% | IC100 [4]: 650 ng/mL | Reduction [17]: >95% | Reduction [18]: >95% | Reduction [19]: >95% | Reduction [20]: <50% | Reduction [21]: >95%

CCC(C)[C@H]1O[C@]2(C=C[C@@H]1C)C[C@@H]1C[C@@H](C/C=C(\C)[C@@H](O[C@H]3C[C@H](OC)[C@@H](O[C@H]4C[C@H](OC)[C@H](NN(C)C)[C@H](C)O4)[C@H](C)O3)[C@@H](C)/C=C/C=C3\CO[C@@H]4[C@H](O)C(C)=C[C@@H](C(=O)O1)[C@]34O)O2 (stereo not given in full)
Reduction [9]: >95% | Reduction [10]: >95% | Reduction [11]: >95% | Reduction [12]: >95% | IC100 [4]: 430 ng/mL | Reduction [13]: >95% | Reduction [14]: >95% | Reduction [15]: >95%
